Test results: publication PMC11290850, “Screening of synthetic 1,2,3-triazolic compounds inspired by SRPIN340 as anti-Trypanosoma cruzi agents” (Revista da Sociedade Brasileira de Medicina Tropical, 2024)
“Also recorded” adds a separate entry of the source. Like-named read-outs stand apart in the source and are kept apart here.

Experiments:
U87MG lineage = test system: U87MG lineage; design: method as in earlier work; conditions: human glioblastoma cells; cited from earlier work
[1] = test system: intracellular amastigotes of Trypanosoma cruzi Tulahuen transfected with β-galactosidase strain; assay: In vitro trypanocidal activity, β-galactosidase-expressing T. cruzi in L929 fibroblasts; assay type: cell-based; conditions: for IC50: intracellular amastigotes, Tulahuen β-galactosidase strain, 96 hours of exposition; for Selectivity index (SI): CC50 (L929)/IC50 (T. cruzi Tulahuen)
Procedure: The in vitro assays were conducted at the Centro de Pesquisas René Rachou-Fiocruz (FIOCRUZ-MINAS), Minas Gerais, Brazil. To evaluate trypanocidal activity, initial in vitro screening was performed following the protocols described by Buckner et al.[43] and Romanha et al.. In this assay, Tulahuen T. cruzi strain expressing β-galactosidase trypomastigotes and intracellular amastigotes were cultured in mouse L929 fibroblasts in RPMI1640 medium without phenol red and containing 10% fetal bovine serum. Tissue culture microplates with L929 fibroblasts were incubated overnight at 37°C with 5% CO2. Subsequently, the Tulahuen β-galactosidase-expressing trypomastigotes were added at a ratio of 1:10 cells to trypomastigotes for 2 hours. The medium was then replaced with fresh medium, and the cultures were incubated for 48 hours. Following this step, the medium was replaced with a solution of the test compound, diluted in dimethyl sulfoxide (DMSO, less than 1%), in RPMI1640 medium with concentrations ranging from 5 to 20 µM. […] Benznidazole was utilized as a positive control at 1 µg/mL (3.84 µM).
(§1) Because the amount of beta-galactosidase is directly proportional to the number of parasites, trypanocidal activity was assessed by measuring the decrease in beta-galactosidase activity in the treated cultures compared to the infected control culture without treatment. To determine the cytotoxicity of the compounds on L929 cells, absorbance was measured at two wavelengths (570 and 600 nm) after 4-6 hours of incubation with alamarBlue® reagent (Invitrogen Corporation, USA). Cytotoxicity was evaluated by analyzing the difference in reagent reduction between treated cells (TC) and untreated cells (UT) using an equation provided by the manufacturer of alamarBlue®: […]
(§2) Half-maximum inhibitory concentration (IC50) and half-maximum cytotoxicity concentration (CC50) values were determined through linear interpolation[45] using Excel software (Microsoft Corporation, USA). The assay was conducted in triplicate, and the results are expressed as the percentage inhibition of parasite growth Cytotoxicity assay.

[2] = Cytotoxicity on L929 cells (alamarBlue); assay type: cell-based; conditions: mouse, L929 fibroblasts (infected with T. cruzi), 96-hour exposure
Procedure: as §1, §2
In vitro cytotoxicity assessments of the compounds were performed using AlamarBlue®. The cells and experimental conditions mirrored those used for the trypanocidal assay. After a 96-hour exposure of mouse L929 fibroblasts infected with T. cruzi to the test compounds, alamarBlue® was added, and absorbance was measured after an additional 4-6-hour incubation. IC50 values were determined by linear interpolation, and the selectivity index (SI) was calculated as the ratio of CC50 (the concentration causing 50% cytotoxicity) to IC50 (the concentration causing 50% parasitic inhibition). Benznidazole served as the positive control for comparative analysis.

[3] = test system: Trypanosoma cruzi Y strain; assay: In vivo rapid test, parasitemia in Swiss mice infected with T. cruzi Y strain; conditions: for Reduction in parasitemia: oral gavage once daily for five days, doses of 10, 50, and 250 mg/kg/day; for Overall performance in vivo compared with BZ / Parasitemia compared to infected untreated animals / Parasitemia compared to the untreated group: oral; for Overall performance in vivo compared with BZ: BZ at 100 mg/kg; for Parasitemia compared to infected untreated animals: doses of 50 and 250 mg/kg/day; for Parasitemia compared to the untreated group: smallest dose 10 mg/kg/day
Procedure: The in vivo assays were conducted at the Laboratório de Pesquisas Clínicas, Escola de Farmácia, Universidade Federal de Ouro Preto (UFOP), Minas Gerais State, Brazil, utilizing only compounds with a selectivity index (SI) exceeding 50 (Table 1).
Swiss female mice aged 28-30 days were obtained from the Centro de Ciência Animal of the Universidade Federal de Ouro Preto (UFOP), Minas Gerais State, Brazil. The animals were housed in a temperature range of 20-24 °C with a 12-hour light-dark cycle, and had ad libitum access to filtered water and commercial feed. The experimental procedures were approved by the institutional Comitê de Ética em Experimentação Animal (CEUA-UFOP), Minas Gerais State, Brazil, Protocol 2157041219.
The mice were intraperitoneally infected with 1x10^4 blood trypomastigotes of the T. cruzi Y strain obtained from mice maintained by successive blood passages (CEUA 2015/50). Infection was confirmed by fresh blood examination (FBE)[46] on the 4th day after infection, and treatment commenced. For the in vivo test, the highest concentration attainable when blending the test compounds in various orally safe vehicles was selected. Canola oil yielded the most favorable results. The compounds were diluted with canola oil to the highest possible concentration of 25 mg/mL. Subsequently, two different dilutions (5x) were prepared, resulting in doses of 250, 50, and 10 mg/kg/day. These doses were administered via oral gavage once daily (group n = 8). In parallel, a control group of mice remained infected and untreated (INT), while another group received treatment with the reference drug (BZ) at a dose of 100 mg/kg. The BZ tablets were crushed with 0.5% gum arabic, and suspended in distilled water.
To evaluate the effectiveness of the compounds in reducing parasitemia, FBE was conducted daily for five consecutive days, during which parasitemia was counted.

[4] = Trypanosoma cruzi, TULAHUEN, L929, 96 h, read-out: IC50
[5] = Trypanosoma cruzi, TULAHUEN, L929, 96 h, value in brackets, read-out: IC50
[6] = top concentration limited by solubility (20 to 160 µg/mL)

SMILES: O=C1c2ccccc2C(=O)N1Cc1cn(-c2cc(C(F)(F)F)ccc2N2CCOCC2)nn1 [Compound 6A]
- Cytotoxicity / cellular growth of U87MG lineage (U87MG lineage): no perceived cytotoxicity
- IC50 [1]: Not active

SMILES: COc1ccc(COCc2cn(-c3cc(C(F)(F)F)ccc3N3CCCCC3)nn2)cc1 [Compound 6K]
- IC50 [1, 4]: 10.5 µg/mL
- IC50 [1, 5]: 23.5 µM
- CC50 at 96 h [2, 6]: > 20 µg/mL
- CC50 at 96 h ([2]; value in brackets): > 45 µM

SMILES: FC(F)(F)c1ccc(N2CCCCC2)c(-n2cc(COCc3ccc(Cl)cc3)nn2)c1 [Compound 6G]
- IC50 [1, 4]: < 5 µg/mL
- IC50 [1, 5]: 10.4 µM
- CC50 at 96 h [2, 6]: > 160 µg/mL
- CC50 at 96 h ([2]; value in brackets): > 355 µM

SMILES: O=C(Cn1ccnc1[N+](=O)[O-])NCc1ccccc1 [Benznidazole, reference compound]
- IC50 [1, 4]: 1 µg/mL
- IC50 [1, 5]: 3.81 µM
- CC50 at 96 h [2, 6]: 625 µg/mL

SMILES: FC(F)(F)c1ccc(N2CCCCC2)c(-n2cc(COCc3ccc(Br)cc3)nn2)c1 [Compound 6H]
- Selectivity index (SI) [1]: >69
- IC50 [1, 5]: 4.6 µM
- Reduction in parasitemia [3]: reduction in parasitemia; also recorded: effectively reduced
- Overall performance in vivo compared with BZ [3]: inferior overall performance
- Parasitemia compared to infected untreated animals [3]: significantly reduced
- Parasitemia compared to the untreated group [3]: did not markedly reduce parasitemia
- CC50 at 96 h [2, 6]: > 160 µg/mL
- CC50 at 96 h ([2]; value in brackets): > 323 µM

SMILES: COc1ccc(COCc2cn(-c3cc(C(F)(F)F)ccc3N3CCOCC3)nn2)cc1 [Compound 6D]
- Selectivity index (SI) [1]: >3.0
- IC50 [1, 4]: 6.6 µg/mL
- IC50 [1, 5]: 15.7 µM
- CC50 at 96 h [2, 6]: > 20 µg/mL
- CC50 at 96 h ([2]; value in brackets): > 47.6 µM

SMILES: FC(F)(F)c1ccc(N2CCOCC2)c(-n2cc(COCc3ccc(Cl)cc3)nn2)c1 [Compound 6B]
- Selectivity index (SI) [1]: 15.7
- IC50 [1, 5]: 5 µM
- CC50 at 96 h [2, 6]: 36.1 µg/mL
- CC50 at 96 h ([2]; value in brackets): 79 µM

SMILES: FC(F)(F)c1ccc(N2CCOCC2)c(-n2cc(COCc3ccc(Br)cc3)nn2)c1 [Compound 6C]
- Selectivity index (SI) [1]: 23.5
- IC50 [1, 4]: < 5 µg/mL
- IC50 [1, 5]: 6.8 µM
- CC50 at 96 h [2, 6]: 80 µg/mL
- CC50 at 96 h ([2]; value in brackets): 161 µM

SMILES: O=C1c2ccccc2C(=O)N1Cc1cn(-c2cc(C(F)(F)F)ccc2N2CCCCC2)nn1 [Compound 6I]
- IC50 [1]: Not active

SMILES: FC(F)(F)c1ccc(N2CCCCC2)c(-n2cc(COCc3ccccc3)nn2)c1 [Compound 6J]
- IC50 [1, 4]: 6.5 µg/mL
- IC50 [1, 5]: 15.6 µM
- CC50 at 96 h [2, 6]: > 20 µg/mL
- CC50 at 96 h ([2]; value in brackets): > 48 µM

SMILES: FC(F)(F)c1ccc(N2CCOCC2)c(-n2cc(COCc3ccccc3)nn2)c1 [Compound 6E]
- Selectivity index (SI) [1]: 125.2
- IC50 [1, 4]: 0.5 µg/mL
- IC50 [1, 5]: 1.3 µM
- Reduction in parasitemia [3]: reduction in parasitemia; also recorded: effectively reduced
- Overall performance in vivo compared with BZ [3]: inferior overall performance
- Parasitemia compared to infected untreated animals [3]: significantly reduced
- Parasitemia compared to the untreated group [3]: did not markedly reduce parasitemia
- CC50 at 96 h [2, 6]: 62.6 µg/mL
- CC50 at 96 h ([2]; value in brackets): 160 µM

SMILES: CCN(CC)c1ccc(C(F)(F)F)cc1-n1cc(COCc2ccc(Cl)cc2)nn1 [Compound 6F]
- IC50 [1]: Not active
